# System: hypoxia-inducible endogenous VEGF expression in HeLa cells
# Experiment: Hypoxia-inducible endogenous VEGF expression, VEGF ELISA of conditioned media (dose-response EC50)
# Format: cell-based
# Details: HeLa cells, hypoxic conditions (1% O2)
# How it was run: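 HeLa cells were cultured 24-48 h under hypoxia (1% O2, 5% CO2, balance N2) with or without compound. Conditioned-media VEGF protein was measured by ELISA against a standard curve. EC50 and CC50 come from percentage-inhibition curves over, e.g., seven concentrations, with maximal inhibition set at 100%.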
row,Compound,EC50 [nM]
1,COc1ccc(C2c3[nH]c4ccc(Cl)cc4c3CCN2C(=O)Oc2ccc(F)cc2)cc1 (stereo not shown) [Compound 410],< 8
2,CC(C)c1ccc(C2c3[nH]c4ccc(Br)cc4c3CCN2C(=O)Oc2ccc(Cl)cc2)cc1 (stereo not shown) [Compound 572],< 8
3,O=C(Oc1ccc(Cl)cc1)N1CCc2c([nH]c3ccc(Br)cc23)C1c1ccc(C(F)(F)F)cc1 (stereo not shown) [Compound 570],< 8

# Same assay, conditions: Homo sapiens, HeLa cells under hypoxic conditions
row,Compound,EC50 [nM]
1,COc1ccc(C2c3[nH]c4ccc(Cl)cc4c3CCN2C(=O)Nc2cccc(OC)c2)cc1 (stereo not shown) [Compound 164],40 to 200
2,COc1ccc(C2NCCc3c2[nH]c2ccc(Cl)cc32)cc1 (stereo not shown) [Compound 231],> 1000
3,COc1ccc(C2c3[nH]c4ccc(Cl)cc4c3CCN2C(=O)OC(C)Cl)cc1 (stereo not shown) [Compound 182],200 to 1000
4,Fc1ccc(F)c(C2NCCc3c2[nH]c2ccc(Br)cc32)c1 (stereo not shown) [Compound 178],200 to 1000
5,Cc1ccc(C2NCCc3c2[nH]c2ccc(F)cc32)cc1 (stereo not shown) [Compound 255],> 1000
6,COCC(=O)N1CCc2c([nH]c3ccc(Br)cc23)C1c1ccc(C(C)C)cc1 (stereo not shown) [Compound 187],200 to 1000
7,CCOC(=O)N1Cc2c([nH]c3ccc(Br)cc23)C(O)C1 (stereo not shown) [Compound 249],> 1000
8,ON1CCc2c([nH]c3ccc(Br)cc23)C1c1ccc(Cl)cc1 (stereo not shown) [Compound 81],8 to 40
9,COc1ccc(C2c3[nH]c4ccc(Cl)cc4c3CCN2C(=O)Oc2ccc(C)cc2)cc1 (stereo not shown) [Compound 17],< 8
10,CCOC(=O)N1CCc2c([nH]c3ccc(Cl)cc23)C1c1cccc(F)c1 (stereo not shown) [Compound 51],8 to 40
11,Fc1ccc2[nH]c3c(c2c1)CCNC3c1ccc(Cl)cc1Cl (stereo not shown) [Compound 257],> 1000
12,COc1ccc(C2c3[nH]c4ccc(Cl)cc4c3CCN2C(=O)NCc2ccccc2)cc1 (stereo not shown) [Compound 188],200 to 1000
13,Clc1ccc2[nH]c3c(c2c1)CCNC3c1ccc2c(c1)OCO2 (stereo not shown) [Compound 227],200 to 1000
14,COc1ccc(C2c3[nH]c4ccc(Cl)cc4c3CCN2C(=O)N2CCOCC2)cc1 (stereo not shown) [Compound 334],> 1000
15,Brc1ccc2[nH]c3c(c2c1)CCN(c1ncccn1)C3c1ccc(OCCN2CCOCC2)cc1 (stereo not shown) [Compound 357],40 to 200
16,COC(=O)N1CCc2c([nH]c3ccc(Cl)cc23)C1c1ccc([N+](=O)[O-])cc1 (stereo not shown) [Compound 111],8 to 40
17,Oc1ccc(Br)cc1C1NCCc2c1[nH]c1ccc(Br)cc21 (stereo not shown) [Compound 382],> 1000
18,C=CCOc1ccc(C2c3[nH]c4ccc(Cl)cc4c3CCN2C(=O)OCC)cc1 (stereo not shown) [Compound 396],< 8

row,Compound,EC50 [nM]
1,CCOC(=O)Oc1ccc(C2c3[nH]c4ccc(Cl)cc4c3CCN2C(=O)OCC)cc1 (stereo not shown) [Compound 136],40 to 200
2,O=C(OCCCl)N1CCc2c([nH]c3ccc(Cl)cc23)C1c1ccccc1F (stereo not shown) [Compound 103],8 to 40
3,COc1ccc(C2c3[nH]c4ccc(Cl)cc4c3CCN2C(=O)c2ccc(F)c(F)c2F)cc1 (stereo not shown) [Compound 373],40 to 200
4,C[C@H](NC(=O)OC(C)(C)C)C(=O)N1CCc2c([nH]c3ccc(Cl)cc23)C1c1ccccc1 (stereo partly shown) [Compound 166],40 to 200
5,CCOC(=O)N1CCc2c([nH]c3ccc(Br)cc23)C1c1cccc(F)c1F (stereo not shown) [Compound 29],< 8
6,Cc1ccc(NC(=S)N2CCc3c([nH]c4ccc(Cl)cc34)C2c2ccc(C(C)C)cc2)cc1 (stereo not shown) [Compound 338],200 to 1000
7,CCOC(=O)N1CCc2c([nH]c3ccc(Cl)cc23)C1c1ccc(F)cc1F (stereo not shown) [Compound 21],< 8
8,CCCOC(=O)N1CCc2c([nH]c3ccc(Cl)cc23)C1c1ccccc1 (stereo not shown) [Compound 94],8 to 40
9,CCNC(=S)N1CCc2c([nH]c3ccc(Cl)cc23)C1c1ccc(OC)cc1 (stereo not shown) [Compound 146],40 to 200
10,O=C(O)C1Cc2c([nH]c3ccccc23)C(c2ccccc2)N1 (stereo not shown) [Compound 314],> 1000
11,CCOC(=O)N1CCc2c([nH]c3ccc(Cl)cc23)C1c1ccc(C(F)(F)F)cc1 (stereo not shown) [Compound 31],< 8
12,COc1ccc(C2c3[nH]c4ccc(Cl)cc4c3CCN2S(=O)(=O)c2ccccc2Cl)cc1 (stereo not shown) [Compound 372],> 1000
13,O=C(OCCCl)N1CCc2c([nH]c3ccc(Cl)cc23)C1c1ccc(F)c(F)c1 (stereo not shown) [Compound 35],< 8
14,O=c1c(C2NCCc3c2[nH]c2ccc(Cl)cc32)coc2ccccc12 (stereo not shown) [Compound 234],> 1000
15,Oc1ccccc1C1NCCc2c1[nH]c1ccc(Br)cc21 (stereo not shown) [Compound 378],> 1000
16,COC(=O)N1CCc2c([nH]c3ccc(Cl)cc23)C1c1cc(F)ccc1F (stereo not shown) [Compound 154],40 to 200
17,O=C(Oc1ccc(Cl)cc1)N1CCc2c([nH]c3ccc(Cl)cc23)C1c1ccc(S(=O)(=O)N2CCOCC2)cc1 (stereo not shown) [Compound 346],8 to 40

# Same assay, conditions: Homo sapiens, HeLa cells, hypoxic conditions (1% O2)
row,Compound,EC50 [nM]
1,CCOC(=O)N1CCc2c([nH]c3ccc(Cl)cc23)C1c1ccc(C(=O)NCC2COC(C)(C)O2)cc1 (stereo not shown) [Compound 461],8 to 40
2,O=C(Oc1ccc([N+](=O)[O-])cc1)N1CCc2c([nH]c3ccc(Cl)cc23)C1c1ccc(OCC(O)CO)cc1 (stereo not shown) [Compound 632],8 to 40
3,CN1CCN(CCCCCCOc2ccc(C3c4[nH]c5ccc(Cl)cc5c4CCN3C(=O)Oc3ccc(F)cc3)cc2)CC1 (stereo not shown) [Compound 778],< 8
4,O=C(Oc1ccc(Cl)cc1)N1CCc2c([nH]c3ccc(Cl)cc23)C1c1ccc(OCCCCNCCO)cc1 (stereo not shown) [Compound 699],8 to 40
5,C=CCOc1ccc(C2c3[nH]c4ccc(Cl)cc4c3CCN2C(=O)OCC(C)C)cc1 (stereo not shown) [Compound 414],< 8
6,O=C(Oc1ccc(F)cc1)N1CCc2c([nH]c3ccc(Cl)cc23)C1c1ccc(OCCCCN2CCOCC2)cc1 (stereo not shown) [Compound 738],< 8
7,O=C(Oc1ccc(F)cc1)N1CCc2c([nH]c3ccc(Cl)cc23)C1c1ccc(O)cc1 (stereo not shown) [Compound 575],200 to 1000
8,Cc1ccc(C2c3[nH]c4ccc(Br)cc4c3CCN2C(=O)Oc2ccc(F)cc2)cc1 (stereo not shown) [Compound 398],< 8
9,O=C(Oc1ccc(F)cc1)N1CCc2c([nH]c3ccc(Cl)cc23)C1c1ccc(OCC(O)CO)cc1 (stereo not shown) [Compound 627],< 8
10,CCOC(=O)N1CCc2c([nH]c3ccc(Br)cc23)C1c1ccc(C(N)=O)cc1 (stereo not shown) [Compound 505],40 to 200
11,COc1ccc(C2c3[nH]c4ccc(Cl)cc4c3CCN2C(=O)Cc2ccc(Cl)cc2)cc1 (stereo not shown) [Compound 447],8 to 40
12,O=C(Oc1ccccc1Cl)N1CCc2c([nH]c3ccc(Cl)cc23)C1c1ccc(OCCCCl)cc1 (stereo not shown) [Compound 713],8 to 40
13,CC(C)OC(=O)N1CCc2c([nH]c3ccc(Cl)cc23)C1c1ccc(OCCCN(C)C)cc1 (stereo not shown) [Compound 459],8 to 40
14,COCCOCCOc1ccc(C2c3[nH]c4ccc(Cl)cc4c3CCN2C(=O)Oc2ccc([N+](=O)[O-])cc2)cc1 (stereo not shown) [Compound 681],8 to 40
15,CCOC(=O)N1CCc2c([nH]c3ccc(Cl)cc23)C1c1ccc(S(=O)(=O)N2CCOCC2)cc1 (stereo not shown) [Compound 487],40 to 200
16,C=CC(=O)Nc1ccc(C2c3[nH]c4ccc(Cl)cc4c3CCN2C(=O)Oc2ccc(Cl)cc2)cc1 (stereo not shown) [Compound 500],40 to 200
17,CCOC(=O)N1CCc2c([nH]c3ccc(Br)cc23)C1c1ccc(C(=O)N2CCN(CCO)CC2)cc1 (stereo not shown) [Compound 466],8 to 40

row,Compound,EC50 [nM]
1,COc1ccc(OC(=O)N2CCc3c([nH]c4ccc(Br)cc34)C2c2cnc(N(C)C)nc2)cc1 (stereo not shown) [Compound 431],< 8
2,COC(=O)c1ccc(C2c3[nH]c4ccc(Br)cc4c3CCN2C(=O)Oc2ccccc2Cl)cc1 (stereo not shown) [Compound 593],8 to 40
3,O=C(Oc1ccc(F)cc1)N1CCc2c([nH]c3ccc(Br)cc23)C1c1ccc(C(F)(F)F)cc1 (stereo not shown) [Compound 397],< 8
4,COCCCNCCCCCCOc1ccc(C2c3[nH]c4ccc(Cl)cc4c3CCN2C(=O)Oc2ccc(F)cc2)cc1 (stereo not shown) [Compound 775],< 8
5,O=C(Oc1ccc(F)cc1)N1CCc2c([nH]c3ccc(Cl)cc23)C1c1ccc(F)cc1 (stereo not shown) [Compound 452],8 to 40
6,CCOC(=O)N1CCc2c([nH]c3ccc(Br)cc23)C1c1ccc(CNCCN2CCOCC2)cc1 (stereo not shown) [Compound 535],200 to 1000
7,CCOC(=O)N1CCc2c([nH]c3ccc(Cl)cc23)C1c1ccc(C(=O)N2CCC(N3CCCC3)CC2)cc1 (stereo not shown) [Compound 527],200 to 1000
8,COc1ccc(C2c3[nH]c4ccc(OC)cc4c3CCN2C(=O)Oc2ccc(Cl)cc2)cc1 (stereo not shown) [Compound 614],200 to 1000
9,COCCCNCCCCOc1ccc(C2c3[nH]c4ccc(Cl)cc4c3CCN2C(=O)Oc2ccc(F)cc2)cc1 (stereo not shown) [Compound 737],8 to 40
10,COCCOc1ccc(C2c3[nH]c4ccc(Cl)cc4c3CCN2C(=O)OC(C)C)cc1 (stereo not shown) [Compound 411],< 8
11,CCOC(=O)N1CCc2c([nH]c3ccc(Cl)cc23)C1c1cccc(C(=O)NCCN2CCOCC2)c1 (stereo not shown) [Compound 552],200 to 1000
12,CCOC(=O)N1CCC(NC(=O)c2ccc(C3c4[nH]c5ccc(Cl)cc5c4CCN3C(=O)OCC)cc2)CC1 (stereo not shown) [Compound 453],8 to 40
13,O=C(Oc1ccc(Br)cc1)N1CCc2c([nH]c3ccc(Cl)cc23)C1c1ccc(OCC(O)CO)cc1 (stereo not shown) [Compound 630],< 8
14,Nc1ncc(C2c3[nH]c4ccc(Cl)cc4c3CCN2C(=O)Oc2ccc(Cl)cc2)cn1 (stereo not shown) [Compound 457],8 to 40
15,CC(C)(C)CC1NCCc2c1[nH]c1ccc(Cl)cc21 (stereo not shown) [Compound 565],> 1000
16,O=C(Oc1ccc(Cl)cc1)N1CCc2c([nH]c3ccc(Cl)cc23)C1c1ccc(OCCCCCCN2CCCC2)cc1 (stereo not shown) [Compound 783],< 8

# Same assay, conditions: Homo sapiens, HeLa cells, hypoxic conditions (1% O2, 5% CO2)
row,Compound,EC50 [nM]
1,Cc1ccc(OC(=O)N2CCc3c([nH]c4ccc(Cl)cc34)C2c2ccc(OCC3CCCN(C)C3)cc2)cc1 (stereo not shown) [Compound 951],8 to 40
2,O=C(Oc1ccc(F)cc1)N1CCc2c([nH]c3ccc(Cl)cc23)C1c1ccc(OCCn2cncn2)cc1 (stereo not shown) [Compound 834],8 to 40
3,O=C(Oc1ccc(Cl)cc1)N1CCc2c([nH]c3ccc(Cl)cc23)C1c1ccc(OCCCN2CCSCC2)cc1 (stereo not shown) [Compound 933],< 8
4,COCCN(CCCOc1ccc(C2c3[nH]c4ccc(Cl)cc4c3CCN2C(=O)Oc2ccc(Cl)cc2)cc1)CCOC (stereo not shown) [Compound 916],< 8
5,CN1CCN(CCCOc2ccc(C3c4[nH]c5ccc(Cl)cc5c4CCN3C(=O)Oc3ccc(F)cc3)cc2)CC1 (stereo not shown) [Compound 993],< 8

# Reference: patent publication US8076352B2, “Administration of carboline derivatives useful in the treatment of cancer and other diseases” (PTC Therapeutics, Inc., priority 2004, dated 2011)
